{"source": "paper PMC5448077", "about": "“Development of an orally available inhibitor of CLK1 for skipping a mutated dystrophin exon in Duchenne muscular dystrophy” (Scientific Reports, 2017)", "experiment_in_all_cases": "biochemical", "key": {"IRAK1": {"biological_target": "IRAK1 (Homo sapiens, UniProt P51617)", "in_short": "(§1)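 Human kinases phosphorylating kinase-specific synthetic peptides, assayed by mobility shift (MSA) or IMAP fluorescence polarization, in 20 mM HEPES pH 7.5, 0.01% Triton X-100, 2 mM DTT with substrate/ATP-metal. Reactions ran 1 or 5 h at room temperature; activity = P/(P + S) from product and substrate peak heights.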"}, "ABL(E255K)": {"biological_target": "T1, ABL(E255K) (Homo sapiens, UniProt P00519, E255K)", "T1 construct": "gene ABL1", "T1 sequence (P00519 whole entry E255K)": "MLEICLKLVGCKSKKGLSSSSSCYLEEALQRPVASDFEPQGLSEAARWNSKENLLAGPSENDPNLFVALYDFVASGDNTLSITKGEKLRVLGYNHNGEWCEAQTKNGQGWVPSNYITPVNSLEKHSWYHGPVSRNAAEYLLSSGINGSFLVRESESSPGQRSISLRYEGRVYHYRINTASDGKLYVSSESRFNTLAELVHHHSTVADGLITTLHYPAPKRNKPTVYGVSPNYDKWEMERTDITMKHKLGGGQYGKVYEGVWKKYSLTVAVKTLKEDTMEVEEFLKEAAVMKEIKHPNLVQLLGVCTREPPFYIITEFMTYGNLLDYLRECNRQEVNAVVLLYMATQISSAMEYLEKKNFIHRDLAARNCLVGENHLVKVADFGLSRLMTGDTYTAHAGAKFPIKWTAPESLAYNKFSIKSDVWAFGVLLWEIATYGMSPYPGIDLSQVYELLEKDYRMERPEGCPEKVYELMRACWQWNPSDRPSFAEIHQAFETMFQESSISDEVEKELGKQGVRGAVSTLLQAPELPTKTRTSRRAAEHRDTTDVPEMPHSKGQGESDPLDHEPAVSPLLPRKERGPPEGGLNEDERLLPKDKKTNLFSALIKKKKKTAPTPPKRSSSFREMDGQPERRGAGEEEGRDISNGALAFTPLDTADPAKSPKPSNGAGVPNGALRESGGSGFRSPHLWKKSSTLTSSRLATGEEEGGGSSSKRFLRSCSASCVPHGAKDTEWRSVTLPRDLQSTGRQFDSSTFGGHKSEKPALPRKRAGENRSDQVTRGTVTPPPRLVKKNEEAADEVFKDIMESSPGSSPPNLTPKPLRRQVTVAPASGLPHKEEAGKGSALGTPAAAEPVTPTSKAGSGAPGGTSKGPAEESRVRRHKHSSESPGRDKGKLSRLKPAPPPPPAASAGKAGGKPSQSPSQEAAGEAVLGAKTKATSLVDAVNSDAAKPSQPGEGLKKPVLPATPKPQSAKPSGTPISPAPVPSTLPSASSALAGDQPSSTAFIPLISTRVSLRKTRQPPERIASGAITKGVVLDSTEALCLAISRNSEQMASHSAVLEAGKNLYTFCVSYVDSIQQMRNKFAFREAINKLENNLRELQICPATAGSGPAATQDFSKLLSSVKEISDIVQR", "in_short": "as §1"}, "EGFR": {"biological_target": "EGFR (Homo sapiens, UniProt P00533)", "in_short": "as §1"}, "CDC2/CycB1": {"biological_target": "T2, CDC2/CycB1 (Homo sapiens, UniProt P06493)", "T2 construct": "gene CDK1", "in_short": "as §1"}, "CK2α2/β": {"biological_target": "T3, CK2α2/β (Homo sapiens, UniProt P19784)", "T3 construct": "gene CSNK2A2", "in_short": "as §1"}, "CDK6/CycD3": {"biological_target": "CDK6/CycD3 (Homo sapiens, UniProt Q00534)", "in_short": "as §1"}, "PLK1": {"biological_target": "PLK1 (Homo sapiens, UniProt P53350)", "in_short": "as §1"}, "CDK4/CycD3": {"biological_target": "CDK4/CycD3 (Homo sapiens, UniProt P11802)", "in_short": "as §1"}, "CHK2": {"biological_target": "T4, CHK2 (Homo sapiens, UniProt O96017)", "T4 construct": "gene CHEK2", "in_short": "as §1"}, "MST2": {"biological_target": "T5, MST2 (Homo sapiens, UniProt Q13188)", "T5 construct": "gene STK3", "in_short": "as §1"}, "NEK7": {"biological_target": "NEK7 (Homo sapiens, UniProt Q8TDX7)", "in_short": "as §1"}, "PKCθ": {"biological_target": "T6, PKCθ (Homo sapiens, UniProt Q04759)", "T6 construct": "gene PRKCQ", "in_short": "as §1"}, "DCAMKL2": {"biological_target": "T7, DCAMKL2 (Homo sapiens, UniProt Q8N568)", "T7 construct": "gene DCLK2", "in_short": "as §1"}, "KDR": {"biological_target": "KDR (Homo sapiens, UniProt P35968)", "in_short": "as §1"}, "BMX": {"biological_target": "BMX (Homo sapiens, UniProt P51813)", "sequence (P51813 whole entry)": "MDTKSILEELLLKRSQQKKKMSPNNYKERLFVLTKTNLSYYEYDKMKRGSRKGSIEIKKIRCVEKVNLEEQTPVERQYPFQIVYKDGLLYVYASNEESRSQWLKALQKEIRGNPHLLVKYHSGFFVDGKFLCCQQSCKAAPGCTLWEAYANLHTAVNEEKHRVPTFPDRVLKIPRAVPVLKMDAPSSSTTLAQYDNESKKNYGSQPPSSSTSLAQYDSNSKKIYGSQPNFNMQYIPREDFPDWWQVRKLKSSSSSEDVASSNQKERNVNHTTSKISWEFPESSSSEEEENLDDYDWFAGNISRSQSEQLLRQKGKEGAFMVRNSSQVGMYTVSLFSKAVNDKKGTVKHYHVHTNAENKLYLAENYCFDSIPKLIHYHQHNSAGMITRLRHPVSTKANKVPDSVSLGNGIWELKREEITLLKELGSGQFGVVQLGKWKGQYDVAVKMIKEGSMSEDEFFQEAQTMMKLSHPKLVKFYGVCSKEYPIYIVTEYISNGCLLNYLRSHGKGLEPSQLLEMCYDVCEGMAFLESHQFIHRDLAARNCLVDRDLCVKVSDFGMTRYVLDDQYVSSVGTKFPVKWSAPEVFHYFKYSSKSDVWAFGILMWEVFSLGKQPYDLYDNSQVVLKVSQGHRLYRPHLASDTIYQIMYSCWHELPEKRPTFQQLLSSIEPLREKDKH", "in_short": "as §1"}, "NEK6": {"biological_target": "NEK6 (Homo sapiens, UniProt Q9HC98)", "in_short": "as §1"}, "CDK2/CycE1": {"biological_target": "CDK2/CycE1 (Homo sapiens, UniProt P24941)", "in_short": "as §1"}, "SGK": {"biological_target": "T8, SGK (Homo sapiens, UniProt O00141)", "T8 construct": "gene SGK1", "in_short": "as §1"}, "CSK": {"biological_target": "CSK (Homo sapiens, UniProt P41240)", "sequence (P41240 whole entry)": "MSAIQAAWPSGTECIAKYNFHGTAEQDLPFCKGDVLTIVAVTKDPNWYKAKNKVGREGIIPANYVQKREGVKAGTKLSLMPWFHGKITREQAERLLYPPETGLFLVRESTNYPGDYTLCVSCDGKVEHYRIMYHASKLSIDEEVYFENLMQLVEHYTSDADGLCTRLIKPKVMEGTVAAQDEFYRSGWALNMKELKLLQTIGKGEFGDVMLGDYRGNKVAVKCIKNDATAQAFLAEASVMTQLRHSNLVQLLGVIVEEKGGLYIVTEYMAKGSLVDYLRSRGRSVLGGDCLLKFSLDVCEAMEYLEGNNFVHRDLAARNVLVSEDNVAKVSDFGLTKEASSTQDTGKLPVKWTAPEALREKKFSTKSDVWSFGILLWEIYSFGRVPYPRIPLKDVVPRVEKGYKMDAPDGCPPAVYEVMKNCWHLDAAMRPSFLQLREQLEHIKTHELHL", "in_short": "as §1"}, "PDGFRα": {"biological_target": "T9, PDGFRα (Homo sapiens, UniProt P16234)", "T9 construct": "gene PDGFRA", "in_short": "as §1"}, "TYK2": {"biological_target": "TYK2 (Homo sapiens, UniProt P29597)", "in_short": "as §1"}, "DDR2": {"biological_target": "DDR2 (Homo sapiens, UniProt Q16832)", "in_short": "as §1"}, "ARG": {"biological_target": "T10, ARG (Homo sapiens, UniProt P42684)", "T10 construct": "gene ABL2", "in_short": "as §1"}, "PASK": {"biological_target": "PASK (Homo sapiens, UniProt Q96RG2)", "in_short": "as §1"}, "CaMK4": {"biological_target": "CaMK4 (Homo sapiens, UniProt Q16566)", "sequence (Q16566 whole entry)": "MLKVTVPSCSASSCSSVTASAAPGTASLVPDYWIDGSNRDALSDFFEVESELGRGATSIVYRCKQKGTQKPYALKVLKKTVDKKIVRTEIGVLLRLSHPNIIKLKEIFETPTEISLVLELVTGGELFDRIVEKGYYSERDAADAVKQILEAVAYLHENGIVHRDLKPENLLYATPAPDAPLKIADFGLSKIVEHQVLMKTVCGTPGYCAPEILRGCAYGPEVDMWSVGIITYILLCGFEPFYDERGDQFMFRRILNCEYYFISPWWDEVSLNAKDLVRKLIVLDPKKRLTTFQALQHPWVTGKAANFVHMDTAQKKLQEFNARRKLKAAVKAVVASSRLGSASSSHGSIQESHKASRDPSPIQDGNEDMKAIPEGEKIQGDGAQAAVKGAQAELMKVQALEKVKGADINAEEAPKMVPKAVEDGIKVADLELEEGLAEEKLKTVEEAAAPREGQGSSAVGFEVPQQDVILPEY", "in_short": "as §1"}, "CDC7/ASK": {"biological_target": "CDC7/ASK (Homo sapiens, UniProt O00311)", "sequence (O00311 whole entry)": "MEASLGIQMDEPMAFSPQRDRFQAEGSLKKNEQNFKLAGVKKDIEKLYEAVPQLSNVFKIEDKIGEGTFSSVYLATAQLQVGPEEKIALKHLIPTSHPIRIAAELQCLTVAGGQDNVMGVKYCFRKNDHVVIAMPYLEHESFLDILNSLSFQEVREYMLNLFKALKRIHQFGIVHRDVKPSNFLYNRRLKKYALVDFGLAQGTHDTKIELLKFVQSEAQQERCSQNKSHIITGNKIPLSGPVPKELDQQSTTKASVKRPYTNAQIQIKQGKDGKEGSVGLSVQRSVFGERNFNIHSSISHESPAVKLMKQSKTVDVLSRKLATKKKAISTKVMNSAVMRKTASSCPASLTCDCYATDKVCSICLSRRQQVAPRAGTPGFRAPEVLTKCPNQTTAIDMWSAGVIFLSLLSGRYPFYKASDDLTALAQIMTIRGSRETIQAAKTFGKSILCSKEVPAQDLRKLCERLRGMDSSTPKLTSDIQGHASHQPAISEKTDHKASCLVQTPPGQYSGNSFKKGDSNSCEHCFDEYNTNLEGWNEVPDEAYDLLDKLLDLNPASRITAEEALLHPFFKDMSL", "sequence (Q9UBU7 whole entry partner)": "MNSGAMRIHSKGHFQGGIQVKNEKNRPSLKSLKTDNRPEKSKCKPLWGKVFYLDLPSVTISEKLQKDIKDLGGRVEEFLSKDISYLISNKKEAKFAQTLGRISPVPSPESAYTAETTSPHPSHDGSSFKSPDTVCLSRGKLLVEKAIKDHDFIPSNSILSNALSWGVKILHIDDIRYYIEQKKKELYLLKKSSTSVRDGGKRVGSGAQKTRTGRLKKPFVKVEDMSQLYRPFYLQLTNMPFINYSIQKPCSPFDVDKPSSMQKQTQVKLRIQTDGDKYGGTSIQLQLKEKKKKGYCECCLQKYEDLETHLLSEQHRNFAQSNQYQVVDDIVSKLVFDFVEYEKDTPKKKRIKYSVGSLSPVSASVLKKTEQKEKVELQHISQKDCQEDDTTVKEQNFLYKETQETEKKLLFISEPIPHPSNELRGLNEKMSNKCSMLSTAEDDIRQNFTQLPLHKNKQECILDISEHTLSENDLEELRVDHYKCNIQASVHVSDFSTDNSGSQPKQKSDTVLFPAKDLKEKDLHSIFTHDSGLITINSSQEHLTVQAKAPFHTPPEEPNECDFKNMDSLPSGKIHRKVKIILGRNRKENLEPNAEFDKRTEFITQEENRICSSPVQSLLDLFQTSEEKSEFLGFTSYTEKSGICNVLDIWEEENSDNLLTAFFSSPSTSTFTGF", "in_short": "as §1"}, "SRPK2": {"biological_target": "SRPK2 (Homo sapiens, UniProt P78362)", "in_short": "as §1"}, "NEK9": {"biological_target": "NEK9 (Homo sapiens, UniProt Q8TD19)", "sequence (Q8TD19 whole entry)": "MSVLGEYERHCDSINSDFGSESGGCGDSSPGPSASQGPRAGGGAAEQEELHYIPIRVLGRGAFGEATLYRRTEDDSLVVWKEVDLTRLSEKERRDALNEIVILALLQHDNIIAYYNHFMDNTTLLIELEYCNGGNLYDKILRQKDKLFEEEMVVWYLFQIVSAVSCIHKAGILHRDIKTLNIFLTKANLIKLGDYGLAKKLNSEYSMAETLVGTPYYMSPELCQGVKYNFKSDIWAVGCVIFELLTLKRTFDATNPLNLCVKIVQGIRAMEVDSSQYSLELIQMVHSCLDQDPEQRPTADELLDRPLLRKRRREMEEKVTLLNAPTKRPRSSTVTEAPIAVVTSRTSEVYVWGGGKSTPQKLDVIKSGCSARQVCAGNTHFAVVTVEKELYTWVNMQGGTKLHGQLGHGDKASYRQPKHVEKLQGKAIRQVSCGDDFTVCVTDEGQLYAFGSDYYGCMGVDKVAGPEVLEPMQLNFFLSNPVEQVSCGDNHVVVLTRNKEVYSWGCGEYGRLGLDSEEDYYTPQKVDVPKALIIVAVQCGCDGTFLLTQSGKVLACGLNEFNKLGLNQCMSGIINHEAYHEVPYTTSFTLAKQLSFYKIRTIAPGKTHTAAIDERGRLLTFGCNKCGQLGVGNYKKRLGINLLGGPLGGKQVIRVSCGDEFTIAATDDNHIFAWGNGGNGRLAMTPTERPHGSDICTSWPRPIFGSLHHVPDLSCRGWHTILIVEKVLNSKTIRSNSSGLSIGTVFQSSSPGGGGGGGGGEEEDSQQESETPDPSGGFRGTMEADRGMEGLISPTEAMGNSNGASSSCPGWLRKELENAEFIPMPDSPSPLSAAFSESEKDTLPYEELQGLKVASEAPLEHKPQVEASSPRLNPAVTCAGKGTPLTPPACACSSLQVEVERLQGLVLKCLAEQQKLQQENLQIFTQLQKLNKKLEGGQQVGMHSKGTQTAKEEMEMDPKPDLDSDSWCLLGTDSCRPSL", "in_short": "as §1"}, "IKKα": {"biological_target": "T11, IKKα (Homo sapiens, UniProt O15111)", "T11 construct": "gene CHUK", "in_short": "as §1"}, "CK1δ": {"biological_target": "T12, CK1δ (Homo sapiens, UniProt P48730)", "T12 construct": "gene CSNK1D", "in_short": "as §1"}, "MSSK1": {"biological_target": "T13, MSSK1 (Homo sapiens, UniProt Q9UPE1)", "T13 construct": "gene SRPK3", "in_short": "as §1"}}, "data": [{"compound": "c1cc(-c2ccc3[nH]ncc3c2)ccn1", "note": "[TG693, 5-(4-pyridinyl)-1H-indazole]", "values": [{"measurement": "inhibition at 1 µM", "setting": "IRAK1", "value": 4.2, "unit": "%"}, {"measurement": "inhibition at 1 µM", "setting": "ABL(E255K)", "value": -4.2, "unit": "%"}, {"measurement": "inhibition at 1 µM", "setting": "EGFR", "value": -10.7, "unit": "%"}, {"measurement": "inhibition at 1 µM", "setting": "CDC2/CycB1", "value": 10.3, "unit": "%"}, {"measurement": "inhibition at 1 µM", "setting": "CK2α2/β", "value": 14.6, "unit": "%"}, {"measurement": "inhibition at 1 µM", "setting": "CDK6/CycD3", "value": 9.1, "unit": "%"}, {"measurement": "inhibition at 1 µM", "setting": "PLK1", "value": -8.5, "unit": "%"}, {"measurement": "inhibition at 1 µM", "setting": "CDK4/CycD3", "value": 5.4, "unit": "%"}, {"measurement": "inhibition at 1 µM", "setting": "CHK2", "value": -1, "unit": "%"}, {"measurement": "inhibition at 1 µM", "setting": "MST2", "value": 0.5, "unit": "%"}, {"measurement": "inhibition at 1 µM", "setting": "NEK7", "value": -9, "unit": "%"}, {"measurement": "inhibition at 1 µM", "setting": "PKCθ", "value": -12.6, "unit": "%"}, {"measurement": "inhibition at 1 µM", "setting": "DCAMKL2", "value": 9.6, "unit": "%"}, {"measurement": "inhibition at 1 µM", "setting": "KDR", "value": 0.1, "unit": "%"}, {"measurement": "inhibition at 1 µM", "setting": "BMX", "value": 4.6, "unit": "%"}, {"measurement": "inhibition at 1 µM", "setting": "NEK6", "value": -2.5, "unit": "%"}, {"measurement": "inhibition at 1 µM", "setting": "CDK2/CycE1", "value": 18.1, "unit": "%"}, {"measurement": "inhibition at 1 µM", "setting": "SGK", "value": 5.6, "unit": "%"}, {"measurement": "inhibition at 1 µM", "setting": "CSK", "value": -1.2, "unit": "%"}, {"measurement": "inhibition at 1 µM", "setting": "PDGFRα", "value": 6.2, "unit": "%"}, {"measurement": "inhibition at 1 µM", "setting": "TYK2", "value": 0.6, "unit": "%"}, {"measurement": "inhibition at 1 µM", "setting": "DDR2", "value": -2.2, "unit": "%"}, {"measurement": "inhibition at 1 µM", "setting": "ARG", "value": 4.7, "unit": "%"}, {"measurement": "inhibition at 1 µM", "setting": "PASK", "value": 14.7, "unit": "%"}, {"measurement": "inhibition at 1 µM", "setting": "CaMK4", "value": 0.5, "unit": "%"}, {"measurement": "inhibition at 1 µM", "setting": "CDC7/ASK", "value": 10.8, "unit": "%"}, {"measurement": "inhibition at 1 µM", "setting": "SRPK2", "value": 0.5, "unit": "%"}, {"measurement": "inhibition at 1 µM", "setting": "NEK9", "value": -5.1, "unit": "%"}, {"measurement": "inhibition at 1 µM", "setting": "IKKα", "value": 14.6, "unit": "%"}, {"measurement": "inhibition at 1 µM", "setting": "CK1δ", "value": 21.3, "unit": "%"}, {"measurement": "inhibition at 1 µM", "setting": "MSSK1", "value": -7.3, "unit": "%"}]}]}
